Data set [1] has as its target T1, beef intestine adenosine deaminase (ADA) (Bos taurus, UniProt P56658).
T1 construct: Kinetic properties of beef intestine adenosine deaminase for 2,6-diaminopurine 2′,3′-dideoxynucleoside analogues; purchased Boehringer Mannheim, Mannheim, West Germany; host or cells: beef intestine (tissue-derived enzyme)
T1 sequence (P56658 1-363): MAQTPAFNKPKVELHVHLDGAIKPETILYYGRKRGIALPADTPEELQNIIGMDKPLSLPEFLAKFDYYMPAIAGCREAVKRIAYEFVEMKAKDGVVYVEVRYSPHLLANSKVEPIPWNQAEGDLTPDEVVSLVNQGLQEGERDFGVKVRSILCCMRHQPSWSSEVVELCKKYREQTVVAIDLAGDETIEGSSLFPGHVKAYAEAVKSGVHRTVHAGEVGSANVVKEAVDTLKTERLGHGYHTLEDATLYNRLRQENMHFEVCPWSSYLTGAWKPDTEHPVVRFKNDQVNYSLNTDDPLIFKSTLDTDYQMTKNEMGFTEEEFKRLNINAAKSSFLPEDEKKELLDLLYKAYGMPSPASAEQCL
Briefly: Substrate kinetics for deamination by adenosine deaminase. It counts as biochemical. An excerpt: All four ddDAPR analogues were examined for their susceptibility to deamination by beef intestine adenosine de aminase (ADA).

In data set [2] the test system is HIV (HTLV-IIIB). As to conditions: earlier report, Balzarini et al (1987b); read-out: 50% effective dose (ED₅₀), inhibition of HIV-replication in MT4 cells; cited from earlier work.
Another data set relates to H9. Briefly: Cytostatic effect against H9 cells. It counts as cell-based. As to conditions: Homo sapiens, read-out: Inhibitory dose-50 H9. As to the method:
(§1) The cultivation of Raji, Molt/4F, CEM, H9, HUT-78 and MT4 cells has been described in Balzarini, J, et al, Biochem. Biophys. Res. Commun. 136:64-71 (1986b) and Pauwels, R. et al, J. Virol. Methods, 16:171-185 (1987).
(§2) The cytostatic effects of the compounds listed in Table 1 were examined against several human B-lymphoblast Raji, T-lymphoblast Molt/4F and T-lymphocyte CEM, H9 and MT4 cell lines (Table 2). […] In no case is the ID₅₀ of the compounds for tumor cell proliferation lower than 60 µM. FddGuo is slightly more cytostatic than FddDAPR (ID₅₀ : 190 to 228 µM, and 233 to >1000 µM, respectively). XylodDAPR and araDAPR are devoid of any anti-cellular activity, even when tested at a concentration as high as 1000 µM.

Data set [3] is described as follows: in vitro. As to conditions: human, mt4 cells. It counts as cell-based. The procedure:
(§3) For the determination of the cytopathic effect of HIV in human T-lymphocyte MT4 cells, MT4 cells, subcultured one day before the start of the experiment, were adjusted at 5 x 10⁵ cells/ml and infected with HIV (HTLV-IIIB) at 100 CCID₅₀/ml. Then, 100 µl of the infected cell suspension was brought into wells of a microtiter tray containing 100 µl of various dilutions of the test compounds. After 5 days incubation at 37°C, the number of viable cells was recorded microscopically in a hematocytometer by trypan blue exclusion.
Its anti-HIV activity is also higher than that found for its corresponding 2,6-diaminopurine derivative FddDAPR.

The subject of data set [4] is MT4. Briefly: Cytostatic effect against MT4 cells. It is filed as cell-based. As to conditions: Homo sapiens, read-out: Inhibitory dose-50 MT4. The procedure:
as §1, §2

Another data set has as its system B-lymphoblast Raji. Briefly: Cytostatic effect against Raji cells. It counts as cell-based. As to conditions: Homo sapiens, read-out: Inhibitory dose-50 Raji. The procedure:
as §1, §2

Data set [5] concerns MT4. Briefly: Cytostatic effect against MT4 cells. It counts as cell-based. As to conditions: Homo sapiens, read-out: Inhibitory dose-50 MT4. The source holds these as a separate data set.
Data set [6] deals with Moloney murine sarcoma virus (MSV). Briefly: MSV-induced C3H cell transformation. It is filed as cell-based. As to conditions: for EC50: Moloney murine sarcoma virus, C3H. As to the method:
For transformation of C3H mouse embryo cells by Molo ney murine sarcoma virus (MSV), confluent monolayers of C3H cells in 1 ml wells of Tissue Culture Cluster plates were infected wiht 150 foci-forming units of MSV during 90 min, whereafter medium was replaced by 1 ml fresh culture medium containing different concentrations of test compound. After 6-7 days incubation at 37°C, transformation of the cell cultures was monitored microscopically.
(§4) A series of novel 2,6-diaminopurine and guanine 2′,3′-dideoxynucleoside analogues in which the 2′,3′-dideoxyribose moiety is substituted by a 3′-fluoro group, or replaced by arabinose or 2′-deoxyxylose were evaluated for their effect on the transformation of C3H mouse embryo cells by Moloney murine sarcoma virus (MSV) (Table 1) and the cytopathogenicity induced by HIV in human T4 lymphocyte MT4 cells (Table 1, Fig. 2).

The target of data set [7] is T1, beef intestine adenosine deaminase (ADA). As to conditions: data taken from Balzarini, J. et al (1987c); cited from earlier work.
Data set [8] deals with HIV (HTLV-IIIB). The experiment in a line: HIV-induced cytopathogenicity in MT4 cells (viable cell count by trypan blue exclusion after 5 days). As to conditions: for EC50: Human immunodeficiency virus 1, IIIB. It is filed as cell-based. As to the method: as §3, §4
Background: Protection from cytopathic effect is a common read-out in antiviral testing.

Data set [9] concerns T-lymphocyte CEM. The experiment in a line: Cytostatic effect against CEM cells. It counts as cell-based. As to conditions: Homo sapiens, read-out: Inhibitory dose-50 CEM.
Data set [10] in a line: in vitro. It is filed as cell-based. As to conditions: mouse, c3h cells.
Data set [11] concerns T-lymphocyte CEM. Briefly: Cytostatic effect against CEM cells. It counts as cell-based. As to conditions: Homo sapiens, CCRF-CEM, read-out: Inhibitory dose-50 CEM. As to the method: as §1, §2
A further data set relates to T-lymphoblast Molt/4F. Briefly: Cytostatic effect against Molt/4F cells. It is filed as cell-based. As to conditions: Homo sapiens, read-out: Inhibitory dose-50 Molt/4F. An excerpt: The cultivation of Raji, Molt/4F, CEM, H9, HUT-78 and MT4 cells has been described in Balzarini, J, et al, Biochem. Biophys. Res. Commun.
The cytostatic effects of the compounds listed in Table 1 were examined against several human B-lymphoblast Raji, T-lymphoblast Molt/4F and T-lymphocyte CEM, H9 and MT4 cell lines (Table 2).

Where [12] appears, read: presence of DCF (10 µM preincubation).

Like-named read-outs stand apart in the source and are kept apart here. Marks after values point to notes of the source that are not given here. Bounds are passed on as bounds.

Broadly, the CC50 is the concentration at which the toxic effect on the cells reaches its halfway point. One may read the Km as the concentration of substrate that gives half-maximal velocity. On to `Nc1nc(N)c2ncn([C@H]3CC[C@@H](CO)O3)c2n1` [ddDAPR, 2,6-Diamino-9-(2,3-dideoxy-β-D-glycero-pentofuranosyl)purine], for which, in [1], the “Vmax relative to that observed for Ado” value stood at 3%. For the same compound, the EC50 is 2.5 to 3.6 µM with HIV (HTLV-IIIB) [2]; 19 µM in data set [6] (C3H cells, 6-7 days at 37°C, read-out: MSV-induced C3H cell transformation ED₅₀); 84 µM in data set [6] (presence of 10 µM DCF (2′-deoxycoformycin), read-out: Effective dose-50 MSV-induced C3H cell transformation); 23 µM in [6] (without DCF (Table 3), read-out: Effective dose-50 MSV-induced C3H cell transformation); 3.8 µM with HIV (HTLV-IIIB) [8] (MT4, 120 h, MT4 cells, 5 days at 37°C, read-out: HIV-induced cytopathogenicity in MT4 cells ED₅₀); 13 µM in the data set on HIV (HTLV-IIIB) [8] (MT4, presence of 10 µM DCF (2′-deoxycoformycin), read-out: Effective dose-50 HIV-induced cytopathogenicity in MT4 cells). In the data set on HIV (HTLV-IIIB) [8] (MT4, without DCF (Table 3), read-out: Effective dose-50 HIV-induced cytopathogenicity in MT4 cells), the EC50 amounted to 3.8 µM. The IC50 in the data set with H9 is 466 µM; with MT4 [4], 644 µM; in the data set on B-lymphoblast Raji, 324 µM; with MT4 [5] (MT4, presence of DCF (10 µM preincubation)), above 1000 µM; in the data set with MT4 [5] (MT4, without DCF (Table 4)), above 1000 µM; in the data set with T-lymphocyte CEM [9] (setting [12]), above 1000 µM. Also, the IC50 is 128 µM in the data set with T-lymphocyte CEM [9] (without DCF (Table 4)), 125 µM in the data set with T-lymphocyte CEM [11], above 1000 µM with T-lymphoblast Molt/4F (setting [12]) and 220 µM in the data set with T-lymphoblast Molt/4F (without DCF (Table 4)). Also, in the data set “in vitro [3]”, the midpoint of cytotoxicity, the CC50 at 120 h, lay at 404 µM. Further, the “MSV-induced C3H cell transformation S.I.” value in data set [6] (selectivity index, ratio of 50% cytotoxic dose to 50% antivirally effective dose) is recorded as “≧ 11”. Besides, the Km in data set [7] is 29 µM. For the same compound, the Vmax in [7] is given as 8.2^a µmole/mg proten/min. Further, the “HIV-induced cytopathogenicity in MT4 cells S.I.” value in the data set with HIV (HTLV-IIIB) [8] (selectivity index, ratio of 50% cytotoxic dose to 50% antivirally effective dose, 7200 min) is 106. In the data set “in vitro [10]”, the CC50 was at least 200 µM.
